Results published in ChEMBL document CHEMBL1201862, “PubChem BioAssay data set” (2004).
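96-well plates; 48 h exposure; 5 concentrations. Endpoints by linear interpolation between flanking doses. Not reached: highest tested concentration assigned. Here, GI50 denotes the concentration required for 50% inhibition of growth.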 Activity calls are given as the source filed them. Rule as the data show it: active = GI50 up to about 1.1 µM and inactive = higher.

Experiments:
Assay in all cases: NCI-60 cell line screen, 48 h
CCRF-CEM = system: CCRF-CEM
DU-145 = system: DU-145
HL-60 = system: HL-60
HT-29 = system: HT-29
Hs-578T = system: Hs-578T
IGROV-1 = system: IGROV-1
K562 = system: K562
M14 = system: M14
MCF7 = system: MCF7
NCI-H23 = system: NCI-H23
NCI-H522 = system: NCI-H522
OVCAR-5 = system: OVCAR-5
OVCAR-8 = system: OVCAR-8
SF-268 = system: SF-268
SF-539 = system: SF-539
SK-OV-3 = system: SK-OV-3
SN12C = system: SN12C
UO-31 = system: UO-31
OVCAR-3 = system: OVCAR-3
SK-MEL-28 = system: SK-MEL-28

Compound	GI50 (CCRF-CEM)	GI50 (DU-145)	GI50 (HL-60)	GI50 (HT-29)	GI50 (Hs-578T)	GI50 (IGROV-1)	GI50 (K562)	GI50 (M14)	GI50 (MCF7)	GI50 (NCI-H23)	GI50 (NCI-H522)	GI50 (OVCAR-5)	GI50 (OVCAR-8)	GI50 (SF-268)	GI50 (SF-539)	GI50 (SK-OV-3)	GI50 (SN12C)	GI50 (UO-31)	GI50 (OVCAR-3)	GI50 (SK-MEL-28)
CC1=CC(=O)/C(=C/Nc2nc(-c3ccc([N+](=O)[O-])cc3)cs2)C(=O)O1	31.5 µM (inactive)	> 100 µM (inactive)	19.9 µM (inactive)	> 100 µM (inactive)	> 100 µM (inactive)	> 100 µM (inactive)	> 100 µM (inactive)	> 100 µM (inactive)	> 100 µM (inactive)	> 100 µM (inactive)	31.6 µM (inactive)	> 100 µM (inactive)	> 100 µM (inactive)	> 100 µM (inactive)	> 100 µM (inactive)	> 100 µM (inactive)	> 100 µM (inactive)	> 100 µM (inactive)	–	–
CCCCCC(O)C(O)CCC[C@H](O)[C@H]1CC[C@H]([C@H]2CC[C@H]([C@H](O)CCCCCCCCCCCCC3=C[C@H](C)OC3=O)O2)O1 (stereo partly specified)	1.09 µM (active)	9.18 µM (inactive)	1.57 µM (inactive)	2.63 µM (inactive)	2.91 µM (inactive)	3.24 µM (inactive)	1.38 µM (inactive)	3.49 µM (inactive)	1.9 µM (inactive)	1.37 µM (inactive)	4.88 µM (inactive)	15.7 µM (inactive)	2.99 µM (inactive)	1.83 µM (inactive)	5.7 µM (inactive)	–	3.87 µM (inactive)	1.85 µM (inactive)	2.47 µM (inactive)	2.56 µM (inactive)
N#CCCNCCN(CCN(C(=O)Nc1ccccc1)c1ccccc1)C(=O)Nc1ccccc1	78.9 µM (inactive)	66.8 µM (inactive)	35.9 µM (inactive)	33.2 µM (inactive)	59.2 µM (inactive)	50.4 µM (inactive)	67 µM (inactive)	21.1 µM (inactive)	37.8 µM (inactive)	33.2 µM (inactive)	24.8 µM (inactive)	64.6 µM (inactive)	59.4 µM (inactive)	63.5 µM (inactive)	–	> 100 µM (inactive)	78.9 µM (inactive)	26.4 µM (inactive)	–	18.7 µM (inactive)
Cc1cc(C2(c3cc(C)c(O)c(C(=O)O)c3)OS(=O)(=O)c3ccccc32)cc(C(=O)O)c1O	–	> 100 µM (inactive)	> 100 µM (inactive)	> 100 µM (inactive)	> 100 µM (inactive)	> 100 µM (inactive)	> 100 µM (inactive)	> 100 µM (inactive)	> 100 µM (inactive)	–	> 100 µM (inactive)	> 100 µM (inactive)	> 100 µM (inactive)	> 100 µM (inactive)	> 100 µM (inactive)	> 100 µM (inactive)	> 100 µM (inactive)	> 100 µM (inactive)	> 100 µM (inactive)	> 100 µM (inactive)
NNc1nncc2[nH]nnc12	> 100 µM (inactive)	> 100 µM (inactive)	48.1 µM (inactive)	> 100 µM (inactive)	> 100 µM (inactive)	> 100 µM (inactive)	> 100 µM (inactive)	> 100 µM (inactive)	> 100 µM (inactive)	> 100 µM (inactive)	–	> 100 µM (inactive)	> 100 µM (inactive)	> 100 µM (inactive)	> 100 µM (inactive)	–	> 100 µM (inactive)	> 100 µM (inactive)	> 100 µM (inactive)	> 100 µM (inactive)
O=C1c2ccccc2-c2cc([N+](=O)[O-])c([N+](=O)[O-])cc21	0.243 µM (active)	1.77 µM (inactive)	0.564 µM (active)	1.91 µM (inactive)	3.78 µM (inactive)	1.49 µM (inactive)	2.16 µM (inactive)	1.77 µM (inactive)	1.38 µM (inactive)	1.91 µM (inactive)	1.05 µM (active)	2.18 µM (inactive)	1.64 µM (inactive)	2.18 µM (inactive)	0.485 µM (active)	2.66 µM (inactive)	1.86 µM (inactive)	1.67 µM (inactive)	–	2.9 µM (inactive)
C=C1C(=O)[C@]23[C@H](O)[C@H]1CC[C@H]2[C@@]12CO[C@@]3(O)C[C@@H]1C(C)(C)CC[C@@H]2O [MEGATHYRIN A]	7.59 µM (inactive)	9.53 µM (inactive)	8.45 µM (inactive)	6.21 µM (inactive)	7.29 µM (inactive)	7.14 µM (inactive)	7.41 µM (inactive)	–	6.18 µM (inactive)	7.4 µM (inactive)	3.63 µM (inactive)	> 25 µM (inactive)	8.57 µM (inactive)	6.34 µM (inactive)	6.79 µM (inactive)	–	7.85 µM (inactive)	13.8 µM (inactive)	11.5 µM (inactive)	7.14 µM (inactive)
O=C(O)/C=C/C(=O)O [FUMARIC ACID]	> 100 µM (inactive)	> 100 µM (inactive)	> 100 µM (inactive)	> 100 µM (inactive)	> 100 µM (inactive)	> 100 µM (inactive)	> 100 µM (inactive)	> 100 µM (inactive)	> 100 µM (inactive)	> 100 µM (inactive)	> 100 µM (inactive)	> 100 µM (inactive)	> 100 µM (inactive)	> 100 µM (inactive)	> 100 µM (inactive)	–	> 100 µM (inactive)	> 100 µM (inactive)	> 100 µM (inactive)	> 100 µM (inactive)
C=CCOc1ccc(C(=N/NC(=O)c2ccccc2)/N=N/c2ccccc2)cc1OC	36.6 µM (inactive)	> 100 µM (inactive)	37.8 µM (inactive)	46.5 µM (inactive)	70.8 µM (inactive)	> 100 µM (inactive)	–	> 100 µM (inactive)	> 100 µM (inactive)	73.8 µM (inactive)	93.5 µM (inactive)	> 100 µM (inactive)	65.3 µM (inactive)	> 100 µM (inactive)	> 100 µM (inactive)	–	> 100 µM (inactive)	92.9 µM (inactive)	86.9 µM (inactive)	> 100 µM (inactive)
c1ccc2c(c1)sc1c3cnccc3ccc21	–	> 100 µM (inactive)	40.6 µM (inactive)	99.8 µM (inactive)	29 µM (inactive)	25.3 µM (inactive)	> 100 µM (inactive)	> 100 µM (inactive)	24.1 µM (inactive)	> 100 µM (inactive)	> 100 µM (inactive)	> 100 µM (inactive)	–	> 100 µM (inactive)	82.2 µM (inactive)	> 100 µM (inactive)	> 100 µM (inactive)	> 100 µM (inactive)	> 100 µM (inactive)	> 100 µM (inactive)
CCN(CC)c1ccc2cc(C(N)=S)c(=N)oc2c1	> 100 µM (inactive)	> 100 µM (inactive)	> 100 µM (inactive)	> 100 µM (inactive)	> 100 µM (inactive)	> 100 µM (inactive)	> 100 µM (inactive)	> 100 µM (inactive)	> 100 µM (inactive)	–	> 100 µM (inactive)	> 100 µM (inactive)	> 100 µM (inactive)	> 100 µM (inactive)	> 100 µM (inactive)	> 100 µM (inactive)	> 100 µM (inactive)	> 100 µM (inactive)	–	> 100 µM (inactive)
